Assay results taken from article PMC8286840, “Identifying SARS-CoV-2 antiviral compounds by screening for small molecule inhibitors of Nsp3 papain-like protease” (Biochemical Journal, 2021).
Counter-ions that a name gives are not always drawn. Like-named read-outs stand apart in the source and are kept apart here.

Key:
[1] = target: T1, SARS-CoV-2 PLpro (nsp3 1564–1878) (Severe acute respiratory syndrome coronavirus 2, UniProt P0DTD1); test: biochemical; design: FRET-quenched peptide (Pro3) cleavage by PLpro, 10 min pre-incubation, slope over 20 min, normalised to no-compound control; settings: high concentration screen, read-out: % of control remaining
[2] = target: T1, SARS-CoV-2 PLpro (nsp3 1564–1878); test: biochemical; design: FRET-quenched peptide (Pro3) cleavage by PLpro, 10 min pre-incubation, slope over 20 min, normalised to no-compound control; settings: low concentration screen, read-out: % of control remaining

## CCCCC/C=C/C/C=C/CCCCCCCC(=O)O [9(E),12(E)-Octadecadienoic acid]
[1]; Well no.=4356
  remaining activity at 3.75 µM: 104%
[2]; Well no.=4356
  remaining activity at 1.25 µM: 105%

## CCCCC/C=C\C=C\[C@H](CCCCCCCC(=O)O)OO [9(S)-HPODE]
[1]; Well no.=4386
  remaining activity at 3.75 µM: 98%
[2]; Well no.=4386
  remaining activity at 1.25 µM: 97.7%

## CCCCCCCC/C=C\CCCCCCCC(=O)O [9(Z)-Octadecenoic acid]
[1]; Well no.=4590
  remaining activity at 3.75 µM: 98.1%
[2]; Well no.=4590
  remaining activity at 1.25 µM: 101%

## CCCC/C=C\CCCCCCCC(=O)O [9(Z)-Tetradecenoic acid]
[1]; Well no.=4268
  remaining activity at 3.75 µM: 98%
[2]; Well no.=4268
  remaining activity at 1.25 µM: 102%

## O=C1NC(=O)c2c1c1c3ccccc3n3c1c1c2c2ccccc2n1C1CCC3O1 [9,10,11,12-Tetrahydro-9,12-epoxy-1H-diindolo[1,2,3-fg:3',2',1'-kl]pyrrolo[3,4-i][1,6]benzodiazocine-1,3(2H)-dione]
[1]; Well no.=2578
  remaining activity at 3.75 µM: 101%
[2]; Well no.=2578
  remaining activity at 1.25 µM: 99%

## CN1C[C@H](CO)C[C@@H]2c3cccc4[nH]cc(c34)C[C@H]21 [9,10-Dihydrolysergol]
[1]; Well no.=3468
  remaining activity at 3.75 µM: 109%
[2]; Well no.=3468
  remaining activity at 1.25 µM: 108%

## Nc1c2c(nc3ccccc13)CCCC2 [9-Amino-1,2,3,4-tetrahydroacridine hydrochloride]
[1]; Well no.=157
  remaining activity at 3.75 µM: 102%
[2]; Well no.=157
  remaining activity at 1.25 µM: 102%

## CC1=C(/C=C/C(C)=C\C=C\C(C)=C\C(=O)O)C(C)(C)CCC1 [9-cis Retinoic acid]
[1]; Well no.=3136
  remaining activity at 3.75 µM: 95.8%
[1]; Well no.=4428
  remaining activity at 3.75 µM: 102%
[2]; Well no.=3136
  remaining activity at 1.25 µM: 98.3%
[2]; Well no.=4428
  remaining activity at 1.25 µM: 103%

## c1ccc2c(Oc3nc(Nc4ccc(N5CCOCC5)cc4)c4ncn(C5CCCCC5)c4n3)cccc2c1 [9-cyclohexyl-N-[4-(4-morpholinyl)phenyl]-2-(1-naphthyloxy)-9H-purin-6-amine]
[1]; Well no.=5695
  remaining activity at 3.75 µM: 97.8%
[2]; Well no.=5695
  remaining activity at 1.25 µM: 98.5%

## Nc1ncnc2c1ncn2C1CCCC1 [9-cyclopentyladenine]
[1]; Well no.=176
  remaining activity at 3.75 µM: 91.5%
[2]; Well no.=176
  remaining activity at 1.25 µM: 93.3%

## CCCCC[C@@H](O)/C=C/[C@H]1[C@H](C/C=C\CCCC(=O)O)[C@@H](O)C[C@@H]1O [9b,11a Prostaglandin F2]
[1]; Well no.=4521
  remaining activity at 3.75 µM: 103%
[2]; Well no.=4521
  remaining activity at 1.25 µM: 101%

## CCCCCC/C=C/CCCCCCCCC(=O)O [10(E)-Heptadecenoic acid]
[1]; Well no.=4312
  remaining activity at 3.75 µM: 96.7%
[2]; Well no.=4312
  remaining activity at 1.25 µM: 104%

## CCCCCCCC/C=C/CCCCCCCCC(=O)O [10(E)-Nonadecenoic acid]
[1]; Well no.=4546
  remaining activity at 3.75 µM: 102%
[2]; Well no.=4546
  remaining activity at 1.25 µM: 98.5%

## CCCC/C=C/CCCCCCCCC(=O)O [10(E)-Pentadecenoic acid]
[1]; Well no.=4300
  remaining activity at 3.75 µM: 89.6%
[2]; Well no.=4300
  remaining activity at 1.25 µM: 97.7%

## CCCCC/C=C\C/C=C\CCCCCCCCC(=O)O [10(Z),13(Z)-Nonadecadienoic acid]
[1]; Well no.=4396
  remaining activity at 3.75 µM: 92.5%
[2]; Well no.=4396
  remaining activity at 1.25 µM: 97.8%

## CCCC/C=C\CCCCCCCCC(=O)O [10(Z)-Pentadecenoic acid]
[1]; Well no.=4542
  remaining activity at 3.75 µM: 97.8%
[2]; Well no.=4542
  remaining activity at 1.25 µM: 89.2%

## CCN(CC)C(C)C(=O)N1c2ccccc2Sc2ccccc21 (stereo not drawn) [10-(alpha-Diethylaminopropionyl)-phenothiazine hydrochloride]
[1]; Well no.=531
  remaining activity at 3.75 µM: 99.7%
[2]; Well no.=531
  remaining activity at 1.25 µM: 104%

## C=CCCCCCCCCC(=O)O [10-Undecenoic acid]
[1]; Well no.=4254
  remaining activity at 3.75 µM: 91.9%
[2]; Well no.=4254
  remaining activity at 1.25 µM: 99%

## CCC(Sc1nnc2c(n1)[nH]c1ccccc12)C(=O)N1c2ccccc2Sc2ccccc21 (stereo not drawn) [10-[2-(5H-[1,2,4]triazino[5,6-b]indol-3-ylsulfanyl)butanoyl]-10H-phenothiazine]
[1]; Well no.=5509
  remaining activity at 3.75 µM: 108%
[2]; Well no.=5509
  remaining activity at 1.25 µM: 110%

## CCN(CC)CCCCN1c2ccccc2Oc2ccc(Cl)cc21 [10-[4'-(N,N-Diethylamino)butyl]-2-chlorophenoxazine hydrochloride]
[1]; Well no.=2574
  remaining activity at 3.75 µM: 101%
[2]; Well no.=2574
  remaining activity at 1.25 µM: 97.3%

## Cc1ccc(S(=O)(=O)N2c3ccccc3Oc3ccccc32)cc1 [10-[(4-methylphenyl)sulfonyl]-10H-phenoxazine]
[1]; Well no.=6041
  remaining activity at 3.75 µM: 96.7%
[2]; Well no.=6041
  remaining activity at 1.25 µM: 96.2%

## CCCCCC/C=C/CCCCCCCCCC(=O)O [11(E)-Octadecenoic acid]
[1]; Well no.=4350
  remaining activity at 3.75 µM: 104%
[2]; Well no.=4350
  remaining activity at 1.25 µM: 106%

## CCCCCCCC/C=C\CCCCCCCCCC(=O)O [11(Z)-Eicosenoic acid]
[1]; Well no.=4406
  remaining activity at 3.75 µM: 93.7%
[2]; Well no.=4406
  remaining activity at 1.25 µM: 96.4%

## CCCCCC/C=C\CCCCCCCCCC(=O)O [11(Z)-Octadecenoic acid]
[1]; Well no.=4348
  remaining activity at 3.75 µM: 94%
[2]; Well no.=4348
  remaining activity at 1.25 µM: 102%

## CCCCC[C@H](O)/C=C/[C@H]1OC(=O)C[C@H](O)[C@@H]1C/C=C\CCCC(=O)O [11-Dehydro-thromboxane B2]
[1]; Well no.=4288
  remaining activity at 3.75 µM: 99.7%
[2]; Well no.=4288
  remaining activity at 1.25 µM: 103%

## C=CCCCCCCCCCC(=O)O [11-Dodecenoic acid]
[1]; Well no.=4258
  remaining activity at 3.75 µM: 96.7%
[2]; Well no.=4258
  remaining activity at 1.25 µM: 98.8%

## O=C(O)CCC/C=C\C/C=C\C=C\[C@@H](O)C/C=C\CCCCCO [12(S),20-DIHETE]
[1]; Well no.=4565
  remaining activity at 3.75 µM: 101%
[2]; Well no.=4565
  remaining activity at 1.25 µM: 99.6%

## CCCCC[C@H](O)/C=C/C=C/C/C=C\CCCC(=O)O [12(S)-HHT]
[1]; Well no.=4234
  remaining activity at 3.75 µM: 103%
[2]; Well no.=4234
  remaining activity at 1.25 µM: 101%

## CCCCC/C=C\C[C@@H](/C=C/C=C\C/C=C\CCCC(=O)O)OO [12(S)-HPETE]
[1]; Well no.=4329
  remaining activity at 3.75 µM: 103%
[2]; Well no.=4329
  remaining activity at 1.25 µM: 110%

## CCCCCCCC/C=C\CCCCCCCCCCC(=O)O [12(Z) Heneicosenoic acid]
[1]; Well no.=4452
  remaining activity at 3.75 µM: 102%
[2]; Well no.=4452
  remaining activity at 1.25 µM: 94%

## CCCCC/C=C\C/C=C\CCCCCCCCCCC(=O)O [12(Z), 15(Z)-Heneicosadienoic acid]
[1]; Well no.=4454
  remaining activity at 3.75 µM: 89.9%
[2]; Well no.=4454
  remaining activity at 1.25 µM: 95.1%

## CC(=O)OCC1=C[C@H]2[C@@H]3C(C)(C)[C@]3(OC(=O)Cc3ccccc3)C[C@@H](C)[C@]2(O)[C@@H]2C=C(C)C(=O)[C@@]2(O)C1 [12-Deoxyphorbol 13-phenylacetate 20-acetate]
[1]; Well no.=3229
  remaining activity at 3.75 µM: 105%
[2]; Well no.=3229
  remaining activity at 1.25 µM: 107%

## COCCCCCCCCCCCC(=O)O [12-Methoxydodecanoic acid]
[1]; Well no.=4262
  remaining activity at 3.75 µM: 94.8%
[1]; Well no.=4359
  remaining activity at 3.75 µM: 97.3%
[2]; Well no.=4262
  remaining activity at 1.25 µM: 96%
[2]; Well no.=4359
  remaining activity at 1.25 µM: 101%

## C=CCCCCCCCCCCC(=O)O [12-Tridecenoic acid]
[1]; Well no.=4264
  remaining activity at 3.75 µM: 98%
[2]; Well no.=4264
  remaining activity at 1.25 µM: 91.3%
